From US20100189683A1, “Pulsatile Dosing of Gossypol for Treatment of Disease” (Ascenta Therapeutics, Inc., priority 2008, published 2010)

Tested on: patients with advanced cancer
Experiment: Phase I clinical trial, daily versus pulsatile dosing of (−)-gossypol: adverse events graded by NCI-CTCAE v3 (Daily N = 38, BID × 3 d N = 21, Weekly N = 12)
Type: in vivo, human
Description: A phase I clinical trial was carried out to compare the maximum tolerated dose and safety of daily (i.e., continuous) versus pulsatile (i.e., intermittent) dosing of (−)-gossypol in patients with advanced cancer. A secondary objective of this study was to identify any anti-tumor activity of (−)-gossypol. Patients were treated with increasing doses of (−)-gossypol according to the following dosing schedules: “Daily” dosing: 5 to 60 mg/day of (−)-gossypol on 21 days per 28 day cycle; “BID×3d” dosing: 30 to 80 mg BID of (−)-gossypol on 3 consecutive days (e.g., Monday-Tuesday-Wednesday) repeated every other week per 28 day cycle; and “Weekly” dosing: 80 to 200 mg of (−)-gossypol once weekly per 28 day cycle. Adverse events (AEs) were graded by NCI-CTCAE v3.

Cc1cc2c(C(C)C)c(O)c(O)c(C=O)c2c(O)c1-c1c(C)cc2c(C(C)C)c(O)c(O)c(C=O)c2c1O [(−)-gossypol]
ALT increase (BID × 3 d, Grade ½): 2 (10) N (%)
AST increase (BID × 3 d, Grade ½): 2 (10) N (%)
Abdominal discomfort (BID × 3 d, Grade ½): 1 (5) N (%)
Abdominal distention (BID × 3 d, Grade ½): 3 (14) N (%)
Abdominal pain (BID × 3 d, Grade ½): 5 (24) N (%)
Albumin decreased (BID × 3 d, Grade ½): 0 N (%)
Alkaline phosphatase increase (BID × 3 d, Grade ½): 2 (10) N (%)
Anorexia or decreased appetite (BID × 3 d, Grade ½): 10 (48) N (%)
Any AE (BID × 3 d, Grade ½): 16 (76) N (%)
Back pain (BID × 3 d, Grade ½): 1 (5) N (%)
Constipation (BID × 3 d, Grade ½): 6 (29) N (%)
Cough (BID × 3 d, Grade ½): 0 N (%)
Creatinine increased (BID × 3 d, Grade ½): 2 (10) N (%)
Creatinine phosphokinase increase (BID × 3 d, Grade ½): 0 N (%)
Dehydration (BID × 3 d, Grade ½): 3 (14) N (%)
Diarrhea (BID × 3 d, Grade ½): 8 (38) N (%)
Dizziness (BID × 3 d, Grade ½): 2 (10) N (%)
Dry mouth (BID × 3 d, Grade ½): 2 (10) N (%)
Dysgeusia (BID × 3 d, Grade ½): 2 (10) N (%)
Dyspnea (BID × 3 d, Grade ½): 5 (24) N (%)
Fatigue/Asthenia (BID × 3 d, Grade ½): 15 (72) N (%)
Flatulence (BID × 3 d, Grade ½): 2 (10) N (%)
Headache (BID × 3 d, Grade ½): 1 (5) N (%)
Hepatic encephalopathy (BID × 3 d, Grade ½): 0 N (%)
Hyperbilirubinaemia (BID × 3 d, Grade ½): 0 N (%)
Hyperkalemia (BID × 3 d, Grade ½): 1 (5) N (%)
Hypocalcemia (BID × 3 d, Grade ½): 0 N (%)
Hypokalemia (BID × 3 d, Grade ½): 1 (5) N (%)
Hyponatremia (BID × 3 d, Grade ½): 1 (5) N (%)
Infection (BID × 3 d, Grade ½): 0 N (%)
Insomnia (BID × 3 d, Grade ½): 1 (5) N (%)
Mental status changes (BID × 3 d, Grade ½): 0 N (%)
Nausea (BID × 3 d, Grade ½): 14 (67) N (%)
Pain (BID × 3 d, Grade ½): 3 (14) N (%)
Pancreatitis (BID × 3 d, Grade ½): 0 N (%)
Peripheral edema (BID × 3 d, Grade ½): 0 N (%)
Pleural Effusion (BID × 3 d, Grade ½): 0 N (%)
Pneumatosis intestinalis (BID × 3 d, Grade ½): 0 N (%)
Pneumonia (BID × 3 d, Grade ½): 0 N (%)
Proteinurea (BID × 3 d, Grade ½): 2 (10) N (%)
Pyrexia (BID × 3 d, Grade ½): 3 (14) N (%)
Renal Failure (BID × 3 d, Grade ½): 0 N (%)
Sinusitis (BID × 3 d, Grade ½): 0 N (%)
Small intestinal obstruction (ileus) (BID × 3 d, Grade ½): 0 N (%)
Troponin I or T increased (BID × 3 d, Grade ½): 1 (5) N (%)
Urinary Tract Infection (BID × 3 d, Grade ½): 2 (10) N (%)
Vomiting (BID × 3 d, Grade ½): 9 (43) N (%)
Weight decreased (BID × 3 d, Grade ½): 4 (19) N (%)
White blood cells increased (BID × 3 d, Grade ½): 2 (10) N (%)
ALT increase (BID × 3 d, Grade ¾): 0 N (%)
AST increase (BID × 3 d, Grade ¾): 0 N (%)
Abdominal discomfort (BID × 3 d, Grade ¾): 0 N (%)
Abdominal distention (BID × 3 d, Grade ¾): 0 N (%)
Abdominal pain (BID × 3 d, Grade ¾): 2 (10) N (%)
Albumin decreased (BID × 3 d, Grade ¾): 0 N (%)
Alkaline phosphatase increase (BID × 3 d, Grade ¾): 0 N (%)
Anorexia or decreased appetite (BID × 3 d, Grade ¾): 1 (5) N (%)
Any AE (BID × 3 d, Grade ¾): 11 (52) N (%)
Back pain (BID × 3 d, Grade ¾): 0 N (%)
Constipation (BID × 3 d, Grade ¾): 0 N (%)
Cough (BID × 3 d, Grade ¾): 0 N (%)
Creatinine increased (BID × 3 d, Grade ¾): 0 N (%)
Creatinine phosphokinase increase (BID × 3 d, Grade ¾): 1 (5) N (%)
Dehydration (BID × 3 d, Grade ¾): 2 (10) N (%)
Diarrhea (BID × 3 d, Grade ¾): 1 (5) N (%)
Dizziness (BID × 3 d, Grade ¾): 0 N (%)
Dry mouth (BID × 3 d, Grade ¾): 0 N (%)
Dysgeusia (BID × 3 d, Grade ¾): 0 N (%)
Dyspnea (BID × 3 d, Grade ¾): 0 N (%)
Fatigue/Asthenia (BID × 3 d, Grade ¾): 1 (5) N (%)
Flatulence (BID × 3 d, Grade ¾): 0 N (%)
Headache (BID × 3 d, Grade ¾): 0 N (%)
Hepatic encephalopathy (BID × 3 d, Grade ¾): 1 (5) N (%)
Hyperbilirubinaemia (BID × 3 d, Grade ¾): 1 (5) N (%)
Hyperkalemia (BID × 3 d, Grade ¾): 1 (5) N (%)
Hypocalcemia (BID × 3 d, Grade ¾): 0 N (%)
Hypokalemia (BID × 3 d, Grade ¾): 3 (14) N (%)
Hyponatremia (BID × 3 d, Grade ¾): 1 (5) N (%)
Infection (BID × 3 d, Grade ¾): 0 N (%)
Insomnia (BID × 3 d, Grade ¾): 0 N (%)
Mental status changes (BID × 3 d, Grade ¾): 0 N (%)
Nausea (BID × 3 d, Grade ¾): 0 N (%)
Pain (BID × 3 d, Grade ¾): 1 (5) N (%)
Pancreatitis (BID × 3 d, Grade ¾): 1 (5) N (%)
Peripheral edema (BID × 3 d, Grade ¾): 0 N (%)
Pleural Effusion (BID × 3 d, Grade ¾): 0 N (%)
Pneumatosis intestinalis (BID × 3 d, Grade ¾): 1 (5) N (%)
Pneumonia (BID × 3 d, Grade ¾): 1 (5) N (%)
Proteinurea (BID × 3 d, Grade ¾): 0 N (%)
Pyrexia (BID × 3 d, Grade ¾): 0 N (%)
Renal Failure (BID × 3 d, Grade ¾): 1 (5) N (%)
Sinusitis (BID × 3 d, Grade ¾): 0 N (%)
Small intestinal obstruction (ileus) (BID × 3 d, Grade ¾): 1 (5) N (%)
Troponin I or T increased (BID × 3 d, Grade ¾): 0 N (%)
Urinary Tract Infection (BID × 3 d, Grade ¾): 0 N (%)
Vomiting (BID × 3 d, Grade ¾): 2 (10) N (%)
Weight decreased (BID × 3 d, Grade ¾): 0 N (%)
White blood cells increased (BID × 3 d, Grade ¾): 0 N (%)
ALT increase (Daily, Grade ½): 7 (18) N (%)
AST increase (Daily, Grade ½): 6 (16) N (%)
Abdominal discomfort (Daily, Grade ½): 0 N (%)
Abdominal distention (Daily, Grade ½): 4 (11) N (%)
Abdominal pain (Daily, Grade ½): 8 (21) N (%)
Albumin decreased (Daily, Grade ½): 0 N (%)
Alkaline phosphatase increase (Daily, Grade ½): 6 (16) N (%)
Anorexia or decreased appetite (Daily, Grade ½): 19 (50) N (%)
Any AE (Daily, Grade ½): 38 (100) N (%)
Back pain (Daily, Grade ½): 6 (16) N (%)
Constipation (Daily, Grade ½): 9 (24) N (%)
Cough (Daily, Grade ½): 8 (21) N (%)
Creatinine increased (Daily, Grade ½): 6 (16) N (%)
Creatinine phosphokinase increase (Daily, Grade ½): 0 N (%)
Dehydration (Daily, Grade ½): 9 (24) N (%)
Diarrhea (Daily, Grade ½): 13 (34) N (%)
Dizziness (Daily, Grade ½): 7 (18) N (%)
Dry mouth (Daily, Grade ½): 3 (8) N (%)
Dysgeusia (Daily, Grade ½): 2 (5) N (%)
Dyspnea (Daily, Grade ½): 6 (16) N (%)
Fatigue/Asthenia (Daily, Grade ½): 31 (81) N (%)
Flatulence (Daily, Grade ½): 1 (3) N (%)
Headache (Daily, Grade ½): 5 (13) N (%)
Hepatic encephalopathy (Daily, Grade ½): 0 N (%)
Hyperbilirubinaemia (Daily, Grade ½): 2 (5) N (%)
Hyperkalemia (Daily, Grade ½): 2 (5) N (%)
Hypocalcemia (Daily, Grade ½): 2 (5) N (%)
Hypokalemia (Daily, Grade ½): 1 (3) N (%)
Hyponatremia (Daily, Grade ½): 1 (3) N (%)
Infection (Daily, Grade ½): 1 (3) N (%)
Insomnia (Daily, Grade ½): 7 (18) N (%)
Mental status changes (Daily, Grade ½): 0 N (%)
Nausea (Daily, Grade ½): 22 (58) N (%)
Pain (Daily, Grade ½): 6 (16) N (%)
Pancreatitis (Daily, Grade ½): 0 N (%)
Peripheral edema (Daily, Grade ½): 5 (13) N (%)
Pleural Effusion (Daily, Grade ½): 1 (3) N (%)
Pneumatosis intestinalis (Daily, Grade ½): 0 N (%)
Pneumonia (Daily, Grade ½): 0 N (%)
Proteinurea (Daily, Grade ½): 0 N (%)
Pyrexia (Daily, Grade ½): 4 (11) N (%)
Renal Failure (Daily, Grade ½): 0 N (%)
Sinusitis (Daily, Grade ½): 4 (11) N (%)
Small intestinal obstruction (ileus) (Daily, Grade ½): 0 N (%)
Troponin I or T increased (Daily, Grade ½): 2 (5) N (%)
Urinary Tract Infection (Daily, Grade ½): 5 (13) N (%)
Vomiting (Daily, Grade ½): 13 (34) N (%)
Weight decreased (Daily, Grade ½): 11 (29) N (%)
White blood cells increased (Daily, Grade ½): 0 N (%)
